In patent US20040265368A1, “Combination compositions of camptothecins and fluoropyrimidines” (priority 2003, published 2004):

How the values were obtained:
[1] = test system: human Capan-1 pancreatic tumor cells; experiment: Capan-1 pancreatic xenograft antitumor activity; assay type: in vivo, SCID-Rag2M mice; settings: i.v., Q7D × 3, tumors to reach 500 mg
Protocol: (§1) Briefly, in order to perform tumor studies on mice, animals are inoculated with tumor cells which are then allowed to grow to sufficient size. Using a 28 g needle, mice are inoculated subcutaneously with 1-2×10^6 tumor cells on day 0 (one inoculum/mouse) in a volume of 50 μL.
(§2) When tumors reach a defined size of approximately 100 mm^3 to 200 mm^3, either one-day prior to treatment or on the day of treatment, all tumors are measured. After selecting the appropriate tumor sizes, excluding tumors too small or large, the tumors are randomly distributed (n=6) and the mean tumor volume of the groups are determined. Mice are organized into appropriate treatment groups consisting of control and treatment groups such as for example, saline control, liposome control, positive control and various dilutions of test articles.
(§3) Mice are injected intravenously with the required volume of sample to administer the prescribed dose (10 μL/g as indicated) to the animals based on individual mouse weights.
(§4) Tumor growth measurements are monitored using vernier calipers beginning on the day of treatment. Tumor length measurements (mm) are made from the longest axis and width measurements (mm) will be perpendicular to this axis. From the length and width measurements tumor volumes (cm^3) are calculated according to the equation (L×W^2/2. Animal weights and in-life observations are collected at the time of tumor measurement.
(§5) In particular, signs of ill health are based on body weight loss, change in appetite, rough coat, lack of grooming, behavioral changes such as altered gait, lethargy and gross manifestations of stress. Should signs of severe toxicity or tumor-related illness be seen, the animals are euthanized (CO2 asphyxiation) and a necropsy is performed to assess other signs of toxicity. Moribund animals are terminated for humane reasons and the decision to terminate is at the discretion of the Study Director/Manager and the Animal Care Technician. Any and all of these findings will be recorded as raw data and the time of death will be logged as the following day.
(§6) Xenograft tumors were allowed to grow until they measured to be approximately 150 mg (150 mm^3) in size, and the murine tumors were grown to approximately 100 mg (100 mm^3), at which time the indicated formulations were injected. Tumor growth was determined by direct caliper measurements. […] Antitumor activity was quantitated by calculating the percent tumor growth delay and log cell kill. Percent tumor growth delay is defined as the time in days taken for treated tumors to reach the specified evaluation size as a percent of control (T−C/C×100) where T is the treatment tumors and C is the control tumors in days. […] A log cell kill of +6 indicates a 99.9999% reduction in the cell population.

[2] = test system: human HT-29 colon adenocarcinoma; experiment: HT-29 colorectal xenograft antitumor activity; settings: i.v., Q7D × 3, tumors to reach 400 mg
Protocol: as §1, §2, §3, §4, §5, §6

SMILES | Log cell kill ([1]; dose 100 mg/kg) | Percent tumor growth delay [(T − C ÷ C) × 100] ([1]; dose 100 mg/kg) | Tumor growth delay ([1]; dose 100 mg/kg) | Log cell kill ([2]; dose 100 mg/kg) | Percent tumor growth delay [(T − C ÷ C) × 100] ([2]; dose 100 mg/kg) | Tumor growth delay ([2]; dose 100 mg/kg) | Percent tumor growth delay [(T − C ÷ C) × 100] ([2]; dose 100 mg/kg, listed as free CPT-11, 100 mg/kg) | Log cell kill ([1]; dose 250 mg/kg) | Percent tumor growth delay [(T − C ÷ C) × 100] ([1]; dose 250 mg/kg) | Tumor growth delay ([1]; dose 250 mg/kg) | Log cell kill ([2]; dose 250 mg/kg) | Percent tumor growth delay [(T − C ÷ C) × 100] ([2]; dose 250 mg/kg) | Tumor growth delay ([2]; dose 250 mg/kg) | Percent tumor growth delay [(T − C ÷ C) × 100] ([2]; dose 250 mg/kg, listed as free FUDR)
CCc1c2c(nc3ccc(OC(=O)N4CCC(N5CCCCC5)CC4)cc13)-c1cc3c(c(=O)n1C2)COC(=O)[C@]3(O)CC [Free Irino, irinotecan] | 0.65 | 35% | 15 days | 0.09 | 8% | 2 days | 8% |  |  |  |  |  |  | 
O=c1[nH]c(=O)n([C@H]2C[C@H](O)[C@@H](CO)O2)cc1F [Free Flox, fluorodeoxyuridine] |  |  |  |  |  |  |  | 0.43 | 23% | 10 days | 0.09 | 8% | 2 days | 8%
